The text below walks through data of ChEMBL document CHEMBL3525928 (Drug Metab Dispos, 2011).

The target of series [1] is T1, OATP1B1 (Homo sapiens, UniProt Q9Y6L6).
T1 sequence (Q9Y6L6 whole entry): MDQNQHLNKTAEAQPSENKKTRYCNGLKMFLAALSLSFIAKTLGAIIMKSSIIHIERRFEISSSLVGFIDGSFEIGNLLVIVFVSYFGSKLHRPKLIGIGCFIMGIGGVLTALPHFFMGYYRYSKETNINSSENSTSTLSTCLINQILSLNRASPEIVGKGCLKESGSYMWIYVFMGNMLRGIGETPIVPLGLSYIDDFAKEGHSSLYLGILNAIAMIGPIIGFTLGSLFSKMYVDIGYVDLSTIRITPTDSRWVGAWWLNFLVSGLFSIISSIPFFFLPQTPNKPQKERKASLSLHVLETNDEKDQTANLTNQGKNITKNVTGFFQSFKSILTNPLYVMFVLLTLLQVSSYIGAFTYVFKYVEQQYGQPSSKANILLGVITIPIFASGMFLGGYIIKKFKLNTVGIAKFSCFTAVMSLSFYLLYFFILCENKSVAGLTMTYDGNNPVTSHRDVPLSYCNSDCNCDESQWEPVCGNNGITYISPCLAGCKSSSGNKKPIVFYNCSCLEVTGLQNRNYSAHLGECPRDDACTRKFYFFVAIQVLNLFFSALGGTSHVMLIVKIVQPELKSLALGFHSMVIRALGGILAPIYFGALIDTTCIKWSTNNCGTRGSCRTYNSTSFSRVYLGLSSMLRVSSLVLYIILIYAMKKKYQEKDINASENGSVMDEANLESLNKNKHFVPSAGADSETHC
Description: Drug uptake ratio assessed as enzyme-mediated uptake in HEK293 cells expressing human OATP1B1 at 1 uM at 37 degC for 3 mins by liquid scintillation spectroscopy relative to wild type. It is filed as ADME, cell-based.

Series [2] deals with T1, OATP1B1. Description: Drug uptake ratio assessed as enzyme-mediated uptake in HEK293 cells expressing human OATP1B1 at 10 uM at 37 degC for 3 mins by liquid scintillation spectroscopy relative to wild type. It is filed as ADME, cell-based.
Series [3] deals with T2, OATP2B1 (Homo sapiens, UniProt O94956).
T2 sequence (O94956 whole entry): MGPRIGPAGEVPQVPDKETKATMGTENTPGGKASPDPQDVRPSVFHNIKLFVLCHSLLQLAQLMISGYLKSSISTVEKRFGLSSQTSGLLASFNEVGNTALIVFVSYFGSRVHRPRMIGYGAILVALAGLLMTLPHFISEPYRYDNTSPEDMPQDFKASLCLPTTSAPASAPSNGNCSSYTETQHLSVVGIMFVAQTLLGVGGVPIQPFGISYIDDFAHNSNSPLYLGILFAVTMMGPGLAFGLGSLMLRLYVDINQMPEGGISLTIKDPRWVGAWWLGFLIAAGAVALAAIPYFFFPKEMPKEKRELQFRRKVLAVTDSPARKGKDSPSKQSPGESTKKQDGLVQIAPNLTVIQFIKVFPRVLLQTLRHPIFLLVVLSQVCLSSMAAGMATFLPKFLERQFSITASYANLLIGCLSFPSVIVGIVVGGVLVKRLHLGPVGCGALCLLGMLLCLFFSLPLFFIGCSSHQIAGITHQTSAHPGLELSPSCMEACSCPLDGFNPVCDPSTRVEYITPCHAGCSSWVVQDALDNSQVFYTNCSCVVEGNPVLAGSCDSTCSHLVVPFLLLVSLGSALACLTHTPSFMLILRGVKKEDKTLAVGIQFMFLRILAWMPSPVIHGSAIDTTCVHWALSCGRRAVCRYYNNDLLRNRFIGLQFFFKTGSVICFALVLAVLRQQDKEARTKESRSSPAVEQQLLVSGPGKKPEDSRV
Description: Drug uptake ratio assessed as enzyme-mediated uptake in HEK293 cells expressing human OATP2B1 at 10 uM at 37 degC for 3 mins by liquid scintillation spectroscopy relative to wild type. In kind it is ADME, cell-based.

Series [4] addresses T2, OATP2B1. Description: Drug uptake ratio assessed as enzyme-mediated uptake in HEK293 cells expressing human OATP2B1 at 1 uM at 37 degC for 3 mins by liquid scintillation spectroscopy relative to wild type. In kind it is ADME, cell-based.
Series [5] can be described thus: Drug excretion in urine (unknown origin). It is filed as ADME, tissue-based. Conditions: human, read-out: Drug excretion; call rule not given here.
The test system of series [6] is Hepatocyte. Description: Drug uptake in sandwich-cultured human hepatocytes lot Hu4165 at 0.05 uM at 37 degC for 5 mins by scintillation spectroscopy in presence of 100 uM digoxin cardiac glycosides (reference value: 100 +/- 3.1 to 100 +/- 7.0%). In kind it is ADME, cell-based.
Series [7] has as its system Hepatocyte. Conditions: human, hepatocytes, 5 min, 0.05 µM.
Series [8] has as its system Hepatocyte. Description: Uptake clearance in sandwich-cultured human hepatocytes measured per mg of protein at 0.05 to 10 uM at 37 degC by scintillation spectroscopy. It is filed as ADME, cell-based.
Series [9] has as its system Hepatocyte. Conditions: human, hepatocytes, 5 min, 0.05 µM. The source holds these as a separate data set.
Series [10] deals with Hepatocyte. Conditions: human, hepatocytes, 5 min, 0.05 µM. The source holds these as a separate data set.
The subject of series [11] is Hepatocyte. Conditions: human, hepatocytes, 5 min, 0.05 µM. The source holds these as a separate data set.
The subject of series [12] is Hepatocyte. Description: Drug uptake in sandwich-cultured human hepatocytes lot Hu4165 at 0.05 uM at 37 degC for 5 mins by scintillation spectroscopy in presence of 100 uM rifampicin OATP substrate/inhibitor (reference value: 100 +/- 3.1 to 100 +/- 7.0%). In kind it is ADME, cell-based. Details: interact cpd dose 100 uM.
Series [13] relates to Hepatocyte. Conditions: human, hepatocytes, 5 min, 0.05 µM. The source holds these as a separate data set.
Series [14] concerns Hepatocyte. Conditions: human, hepatocytes, 5 min, 0.05 µM. The source holds these as a separate data set.
In series [15] the test system is Hepatocyte. Description: Drug uptake in sandwich-cultured human hepatocytes at 0.05 uM at 37 degC by scintillation spectroscopy. It is filed as ADME, cell-based.
For series [16], the system named is Hepatocyte. Description: Drug uptake in sandwich-cultured human hepatocytes measured per mg of protein at 0.05 uM at 4 degC after 5 mins by scintillation spectroscopy. It is filed as ADME, cell-based.
Series [17] relates to Hepatocyte. Description: Uptake clearance in sandwich-cultured human hepatocytes lot Hu4165 […] measured per mg of protein at 0.05 to 1 uM at 37 degC on day 5 by scintillation spectroscopy. In kind it is ADME, cell-based.
Series [18] concerns Hepatocyte. Description: Uptake clearance in sandwich-cultured human hepatocytes lot Hu4165 […] measured per mg of protein at 0.05 to 1 uM at 37 degC after 0.5 to 2 mins by scintillation spectroscopy in presence of 100 uM rifamycin SV. It is filed as ADME, cell-based.
Series [19] in a line: Drug uptake in rat hepatocytes. It is filed as ADME, cell-based, Hepatocyte.
The test system of series [20] is Hepatocyte. Description: Drug uptake in sandwich-cultured human hepatocytes lot Hu4165 at 0.05 uM at 37 degC for 5 mins by scintillation spectroscopy in presence of 100 uM BSP A OATP and […] inhibitor (reference value: 100 +/- 3.1 to 100 +/- 7.0%). Details: interact cpd dose 100 uM. In kind it is ADME, cell-based.
The test system of series [21] is Hepatocyte. Description: Drug uptake in sandwich-cultured human hepatocytes lot Hu4165 at 0.05 uM at 37 degC for 5 mins by scintillation spectroscopy in presence of 500 uM digoxin (1% DMSO) cardiac glycosides (reference value: 100 +/- 3.1 to 100 +/- 7.0%). It is filed as ADME, cell-based.
In series [22] the test system is Hepatocyte. Conditions: human, hepatocytes, 5 min, 0.05 µM. The source holds these as a separate data set.
Series [23] relates to Hepatocyte. Description: Drug uptake in sandwich-cultured human hepatocytes measured per mg of protein at 0.05 uM at 37 degC after 5 mins by scintillation spectroscopy. In kind it is ADME, cell-based.
Series [24] can be described thus: Drug excretion in bile (unknown origin). In kind it is ADME, tissue-based. Conditions: human, read-out: Drug excretion.
The test system of series [25] is Hepatocyte. Conditions: human, hepatocytes, 5 min, 0.05 µM. The source holds these as a separate data set.
For series [26], the system named is Hepatocyte. Conditions: human, hepatocytes, 5 min, 0.05 µM. This is another data set of the same source.
For series [27], the system named is Hepatocyte. Conditions: human, hepatocytes, 5 min, 0.05 µM. The source holds these as a separate data set.
Series [28] has as its system Hepatocyte. Conditions: human, hepatocytes, 5 min, 0.05 µM. This is another data set of the same source.
Series [29] concerns Hepatocyte. Conditions: human, hepatocytes, 5 min, 0.05 µM. The source holds these as a separate data set.
Series [30] concerns Hepatocyte. Conditions: human, hepatocytes, 5 min, 0.05 µM. This is another data set of the same source.
Series [31] has as its system Hepatocyte. Conditions: human, hepatocytes, 1 µM.
Series [32] relates to Hepatocyte. Description: Drug uptake in sandwich-cultured human hepatocytes measured per mg of protein at 0.05 to 10 uM at 37 degC by Michaelis-Menten kinetics/scintillation spectroscopy. It is filed as ADME, cell-based.
Series [33] deals with Hepatocyte. Conditions: human, hepatocytes, 1 µM. The source holds these as a separate data set.
Series [34] in a line: Drug uptake in sandwich-cultured human hepatocytes at 0.05 to 10 uM at 37 degC by Michaelis-Menten kinetics/scintillation spectroscopy. It is filed as ADME, cell-based, Hepatocyte.
The test system of series [35] is Hepatocyte. Conditions: human, hepatocytes, 5 min, 0.05 µM. The source holds these as a separate data set.
For series [36], the system named is Hepatocyte. Description: Drug uptake in sandwich-cultured human hepatocytes lot Hu4165 at 0.05 uM at 37 degC for 5 mins by scintillation spectroscopy in presence of 50 uM FCCP mitochondrial uncouplers (reference value: 100 +/- 3.1 to 100 +/- 7.0%). It is filed as ADME, cell-based. Details: interact cpd dose 50 uM.

Broadly, the Km is the substrate concentration at which the rate is half of its maximum. Usually Vmax stands for the top rate of the reaction or transport when substrate is in excess.

Consider `C[C@]12CC[C@@H]3c4ccc(OS(=O)(=O)O)cc4CC[C@H]3[C@@H]1CCC2=O` [ESTRONE SULFURIC ACID], for which the uptake ratio at 0.05 h, 1 µM on OATP1B1 [1] was 6.7; on OATP2B1 [4] it was 44. The results for the uptake ratio at 0.05 h, 10 µM at OATP1B1 [2] and at OATP2B1 [3] were 2.2 and 50, respectively.
For the compound `C[C@H]1O[C@@H](O[C@H]2[C@@H](O)C[C@H](O[C@H]3[C@@H](O)C[C@H](O[C@H]4CC[C@@]5(C)[C@H](CC[C@@H]6[C@@H]5C[C@@H](O)[C@]5(C)[C@@H](C7=CC(=O)OC7)CC[C@]65O)C4)O[C@@H]3C)O[C@@H]2C)C[C@H](O)[C@@H]1O` [DIGOXIN], the figures for the dose excreted in series [5] and in [24] were 50% and 30%, respectively. For the same compound, the Drug uptake with Hepatocyte [6] amounted to 48.9%; with Hepatocyte [7], 87.4%; in the series on Hepatocyte [9], 89.9%; with Hepatocyte [10], 115%; with Hepatocyte [11], 55.4%; in the series with Hepatocyte [12], 120%. Besides, the Drug uptake in the series with Hepatocyte [13] is reported as 158%; with Hepatocyte [14], 50.5%; in the series with Hepatocyte [15], “Active”; with Hepatocyte [16], 1.33 fmol/min; with Hepatocyte [20], 113%; with Hepatocyte [21] it was 55.5%. Moreover, the Drug uptake is 63.1% in the series with Hepatocyte [22]; 153 fmol/min in the series on Hepatocyte [23]; 45% in the series with Hepatocyte [25]; 163% in the series on Hepatocyte [26]; 114% in the series with Hepatocyte [27]; 90.5% with Hepatocyte [28]. Also, the Drug uptake in the series with Hepatocyte [29] is given as 67.5%; in the series with Hepatocyte [30], 79.2%; in the series on Hepatocyte [35] it was 110%; in the series with Hepatocyte [36] it was 63.8%. The CLup with Hepatocyte [8] worked out at 1.88 µL/min/g; in the series with Hepatocyte [17], 3.6 µL/min/g; in the series on Hepatocyte [18] it was 4.53 µL/min/g; in the series with Hepatocyte [31], 4.06 µL/min/g; with Hepatocyte [33], 1.88 µL/min/g. In addition, the Km in series [19] stood at 0.18 µM. For the same compound, the Vmax in the series with Hepatocyte [32] was 4.49 pmol/min. In addition, the Km at up to 10 µM in [34] came out at 2.39 µM.
